# Laboratory results published in ChEMBL document CHEMBL1151661, “Inhibitory effect of tannins on reverse transcriptase from RNA tumor virus” (J Nat Prod, 1985).
# The source made the active and inactive calls. No cut-off for these calls is given here.
# Tests used:
# [1] = system: Avian myeloblastosis virus; assay: Inhibition of AMV reverse transcriptase activity assessed as incorporation of dTMP in poly(rA)-oligo(dT) at 0.1 uM; parameters: scale not given: the % may be the effect or the level left
# [2] = system: Avian myeloblastosis virus; assay: Inhibition of AMV reverse transcriptase activity assessed as incorporation of dTMP in poly(rA)-oligo(dT) at 1000 uM; parameters: scale not given: the % may be the effect or the level left
# [3] = system: Avian myeloblastosis virus; assay: Inhibition of AMV reverse transcriptase activity assessed as incorporation of dTMP in poly(rA)-oligo(dT) at 100 uM; parameters: scale not given: the % may be the effect or the level left
# [4] = system: Avian myeloblastosis virus; assay: Inhibition of AMV reverse transcriptase activity assessed as incorporation of dGMP in poly(rC)-oligo(dG) at 1000 uM; parameters: scale not given: the % may be the effect or the level left
# [5] = system: Avian myeloblastosis virus; assay: Inhibition of AMV reverse transcriptase activity assessed as incorporation of dGMP in poly(rC)-oligo(dG) at 1 uM; parameters: scale not given: the % may be the effect or the level left
# [6] = system: Avian myeloblastosis virus; assay: Inhibition of AMV reverse transcriptase activity assessed as incorporation of dTMP in poly(rA)-oligo(dT) at 1 uM; parameters: scale not given: the % may be the effect or the level left
# [7] = system: Avian myeloblastosis virus; assay: Inhibition of AMV reverse transcriptase activity assessed as incorporation of dGMP in poly(rC)-oligo(dG) at 0.1 uM; parameters: scale not given: the % may be the effect or the level left
# [8] = system: Avian myeloblastosis virus; assay: Inhibition of AMV reverse transcriptase activity assessed as incorporation of dGMP in poly(rC)-oligo(dG) at 100 uM; parameters: scale not given: the % may be the effect or the level left
# [9] = system: Avian myeloblastosis virus; assay: Inhibition of AMV reverse transcriptase activity assessed as incorporation of dGMP in poly(rC)-oligo(dG) at 10 uM; parameters: scale not given: the % may be the effect or the level left
# [10] = system: Avian myeloblastosis virus; assay: Inhibition of AMV reverse transcriptase activity assessed as incorporation of dTMP in poly(rA)-oligo(dT) at 10 uM; parameters: scale not given: the % may be the effect or the level left
# [11] = organism: Bos taurus; assay: Inhibition of calf thymus DNA polymerase-alpha activity using activated calf thymus DNA at 10 uM
# [12] = system: Avian myeloblastosis virus; assay: Inhibition of AMV reverse transcriptase activity assessed as DNA synthesis treated at 100 uM after 5 mins of initiation of DNA synthesis
# [13] = organism: Bos taurus; assay: Inhibition of calf thymus DNA polymerase-alpha activity using activated calf thymus DNA at 1000 uM
Compound,Activity [1],Activity [2],Activity [3],Activity [4],Activity [5],Activity [6],Activity [7],Activity [8],Activity [9],Activity [10],Activity [11],Activity [12],Activity [13]
O=C(O[C@@H]1O[C@@H]2COC(=O)c3cc(O)c(O)c(O)c3-c3c(cc(O)c(O)c3O)C(=O)O[C@H]([C@H]1O)[C@@H]2O)c1cc(O)c(O)c(O)c1,88%,3%,25%,0%,72%,92%,92%,30%,64%,88%,–,–,–
O=c1oc2c(O)c(O)cc3c(=O)oc4c(O)c(O)cc1c4c23,93%,0%,18%,3%,80%,77%,71%,20%,49%,45%,–,–,–
O=C(O)C[C@@H]1C(=O)O[C@H]2[C@@H]3OC(=O)c4cc(O)c(O)c(O)c4-c4c(cc(O)c(O)c4O)C(=O)OC[C@H]2O[C@@H](OC(=O)c2cc(O)c(O)c(O)c2)[C@@H]3OC(=O)c2cc(O)c(O)c3c2[C@H]1[C@H](O)C(=O)O3,106%,6%,31%,8%,67%,90%,94%,68%,74%,48%,–,–,–
COc1cc2c[n+](C)c3c4cc5c(cc4ccc3c2cc1OC)OCO5,85%,1%,1%,2%,85%,102%,116%,5%,88%,11%,–,–,–
Oc1cc(O)c2c(c1)O[C@H](c1ccc(O)c(O)c1)[C@H](O)[C@H]2c1c(O)cc(O)c2c1O[C@H](c1ccc(O)c(O)c1)[C@H](O)C2,102%,55%,98%,9%,93%,116%,85%,64%,80%,97%,–,–,–
O=C(O)c1cc(O)c(O)c(O)c1,84%,78%,75%,98%,103%,93%,122%,91%,99%,75%,–,–,–
O=C(O[C@H]1O[C@@H]2COC(=O)c3cc(O)c(O)c(O)c3-c3c(cc(O)c(O)c3O)C(=O)O[C@H]2[C@@H]2OC(=O)c3cc(O)c(O)c(O)c3-c3c(cc(O)c(O)c3O)C(=O)O[C@@H]12)c1cc(O)c(O)c(Oc2c(C(=O)O[C@H]3O[C@@H]4COC(=O)c5cc(O)c(O)c(O)c5-c5c(cc(O)c(O)c5O)C(=O)O[C@H]4[C@@H]4OC(=O)c5cc(O)c(O)c(O)c5-c5c(cc(O)c(O)c5O)C(=O)O[C@@H]34)cc(O)c(O)c2O)c1,86%,2%,19%,6%,68%,27%,80%,5%,7%,20%,–,–,–
O=C(OC[C@H]1O[C@@H](OC(=O)c2cc(O)c(O)c(O)c2)[C@H](OC(=O)c2cc(O)c(O)c(O)c2)[C@@H](OC(=O)c2cc(O)c(O)c(O)c2)[C@@H]1OC(=O)c1cc(O)c(O)c(O)c1)c1cc(O)c(O)c(O)c1,67%,7%,25%,15%,62%,39%,80%,27%,44%,30%,–,–,–
O=C(O[C@@H]1O[C@@H]2COC(=O)c3cc(Oc4c(C(=O)O[C@@H]5O[C@@H]6COC(=O)c7cc(O)c(O)c(O)c7-c7c(cc(O)c(O)c7O)C(=O)O[C@H]6[C@H](OC(=O)c6cc(O)c(O)c(O)c6)[C@H]5OC(=O)c5cc(O)c(O)c(O)c5)cc(O)c(O)c4O)c(O)c(O)c3-c3c(cc(O)c(O)c3O)C(=O)O[C@H]2[C@H](OC(=O)c2cc(O)c(O)c(O)c2)[C@H]1OC(=O)c1cc(O)c(O)c(O)c1)c1cc(O)c(O)c(O)c1,55%,6%,5%,2%,54%,16%,111%,12%,12%,7%,–,–,–
O=C1O[C@@H]2[C@@H](OC(=O)c3cc(O)c(O)c(O)c3-c3c1cc(O)c(O)c3O)[C@H](O)O[C@@H]1COC(=O)c3cc(O)c(O)c(O)c3-c3c(O)c(O)c4oc(=O)c5c(c(O)c(O)c6oc(=O)c3c4c65)-c3c(cc(O)c(O)c3O)C(=O)O[C@@H]21,85%,2%,11%,4%,76%,22%,85%,9%,18%,19%,–,–,–
O=C1OC[C@H]2O[C@@H](O)[C@H](O)[C@@H](O)[C@@H]2OC(=O)c2cc(O)c(O)c(O)c2-c2c(O)c(O)c3oc(=O)c4c(c(O)c(O)c5oc(=O)c2c3c54)-c2c1cc(O)c(O)c2O,119%,1%,8%,6%,109%,62%,105%,31%,64%,35%,–,–,–
O=C[C@H](OC(=O)c1cc(O)c(O)c(O)c1)[C@@H](OC(=O)c1cc(O)c(O)c(O)c1)[C@@H]1OC(=O)c2cc(O)c(O)c(O)c2-c2c(cc(Oc3c(C(=O)O[C@@H](C=O)[C@@H](OC(=O)c4cc(O)c(O)c(O)c4)[C@@H]4OC(=O)c5cc(O)c(O)c(O)c5-c5c(cc(O)c(O)c5O)C(=O)OC[C@H]4O)cc(O)c(O)c3O)c(O)c2O)C(=O)OC[C@H]1O,82%,6%,6%,15%,76%,19%,105%,10%,22%,4%,–,–,–
O=C[C@@H]1OC(=O)c2c3c(O)c(O)c(O)c2-c2c(cc(O)c(O)c2O)C(=O)O[C@H]1[C@@H]1OC(=O)c2c(c(O)c(O)c(O)c2-c2c(cc(O)c(O)c2O)C(=O)O[C@H]1COC(=O)c1cc(O)c(O)c(O)c1)O[C@H]1[C@@H]2OC(=O)c4cc(O)c(O)c(O)c4-c4c(cc(O)c(O)c4O)C(=O)O[C@H]2[C@H](OC(=O)c2cc(O)c(O)c(O)c2)O[C@@H]1CO3,66%,3%,5%,20%,73%,24%,106%,14%,22%,4%,–,–,–
O=C1OC[C@H]2OC(O)[C@@H]3OC(=O)c4cc(O)c(O)c(O)c4-c4c(cc(O)c(O)c4O)C(=O)O[C@H]3[C@@H]2OC(=O)c2cc(O)c(O)c(O)c2-c2c1cc(O)c(O)c2O (stereo partly drawn),88%,4%,17%,10%,73%,51%,80%,7%,41%,15%,–,–,–
O=C(O)C[C@H]1C(=O)O[C@H]2[C@H](OC(=O)c3cc(O)c(O)c(O)c3)[C@@H](OC(=O)c3cc(O)c(O)c4c3[C@H]1[C@H](O)C(=O)O4)[C@H](OC(=O)c1cc(O)c(O)c(O)c1)O[C@@H]2COC(=O)c1cc(O)c(O)c(O)c1,109%,8%,24%,1%,67%,71%,75%,27%,46%,22%,–,–,–
O=C(O[C@@H]1O[C@@H]2COC(=O)c3cc(O)c(O)c(O)c3-c3c(cc(O)c(O)c3O)C(=O)O[C@H]2[C@H](OC(=O)c2cc(O)c(O)c(O)c2)[C@H]1OC(=O)c1cc(O)c(O)c(O)c1)c1cc(O)c(O)c(Oc2c(C(=O)O[C@H]3O[C@@H]4COC(=O)c5cc(O)c(O)c(O)c5-c5c(cc(O)c(O)c5O)C(=O)O[C@H]4[C@H](OC(=O)c4cc(O)c(O)c(O)c4)[C@H]3OC(=O)c3cc(O)c(O)c(O)c3)cc(O)c(O)c2O)c1,73%,1%,4%,1%,68%,25%,102%,8%,13%,11%,–,–,–
O=C1O[C@H]2[C@@H]3OC(=O)c4cc(O)c(O)c(O)c4-c4c(cc(O)c(O)c4O)C(=O)OC[C@H]2O[C@@H](OC(=O)c2cc(O)c(O)c(O)c2)[C@@H]3OC(=O)c2cc(O)c(O)c3c2[C@@H]2C1=CC(=O)[C@](O)(O3)C2(O)O,89%,6%,6%,12%,93%,39%,103%,15%,62%,12%,inactive,Active,Active
